Numbered stars: 1 amine (or outer) side, 2 acyl side, 3 side chain; on linkers, the order of the positions; unused ones are H or OH. Square brackets hold non-standard residues; d marks the D form. Side chains are listed from the residue outwards. Peptide text beside a SMILES is read from it. * marks the point of attachment. C20 diacid = O=C(O)CCCCCCCCCCCCCCCCCCC(=O)*; αMePhe(2-F) = C[C@](N)(Cc1ccccc1F)C(=O)O; γGlu = O=C(O)[C@H](CCC(=O)[*:2])N[*:1]; αMeY = C[C@](N)(Cc1ccc(O)cc1)C(=O)O; αMeF = C[C@](N)(Cc1ccccc1)C(=O)O; 3Pal = N[C@@H](Cc1cccnc1)C(=O)O; 4Pal = N[C@@H](Cc1ccncc1)C(=O)O; αMeL = CC(C)C[C@](C)(N)C(=O)O; Orn = NCCC[C@H](N)C(=O)O; AEEA = NCCOCCOCC(=O)O; Aib = CC(C)(N)C(=O)O
Tests used:
[1] = molecular target: human GLP-1 receptor (GLP-1R) (Homo sapiens, UniProt P43220); assay: cAMP pharmacological functional assay in presence of casein, hGLP-1R; type: cell-based; conditions: HEK293 cells expressing hGLP-1R, 0.1% Casein, geometric mean; read-out: hGLP1R cAMP Rel EC50 nM (SEM, n)
[2] = molecular target: T1, gastric inhibitory peptide receptor (GIPR) (Homo sapiens, UniProt P48546); assay: cAMP pharmacological functional assay in presence of casein, hGIPR; type: cell-based; conditions: HEK293 cells expressing hGIPR, 0.1% Casein, geometric mean; read-out: hGIPR cAMP Rel EC50 nM (SEM, n)
T1 sequence (P48546 22-466): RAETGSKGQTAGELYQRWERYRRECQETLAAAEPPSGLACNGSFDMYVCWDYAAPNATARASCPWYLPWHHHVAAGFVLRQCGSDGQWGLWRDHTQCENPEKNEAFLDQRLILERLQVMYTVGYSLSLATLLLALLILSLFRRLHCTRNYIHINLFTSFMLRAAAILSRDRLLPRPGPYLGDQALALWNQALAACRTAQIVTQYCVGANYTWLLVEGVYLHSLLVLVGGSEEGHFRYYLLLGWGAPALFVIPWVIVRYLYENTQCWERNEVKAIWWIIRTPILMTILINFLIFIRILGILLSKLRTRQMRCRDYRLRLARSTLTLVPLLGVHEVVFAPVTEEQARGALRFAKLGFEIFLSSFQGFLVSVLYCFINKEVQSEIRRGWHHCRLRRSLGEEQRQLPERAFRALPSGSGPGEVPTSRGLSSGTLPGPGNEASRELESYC

Sequence of human GLP-1 receptor (GLP-1R) (P43220 24-463): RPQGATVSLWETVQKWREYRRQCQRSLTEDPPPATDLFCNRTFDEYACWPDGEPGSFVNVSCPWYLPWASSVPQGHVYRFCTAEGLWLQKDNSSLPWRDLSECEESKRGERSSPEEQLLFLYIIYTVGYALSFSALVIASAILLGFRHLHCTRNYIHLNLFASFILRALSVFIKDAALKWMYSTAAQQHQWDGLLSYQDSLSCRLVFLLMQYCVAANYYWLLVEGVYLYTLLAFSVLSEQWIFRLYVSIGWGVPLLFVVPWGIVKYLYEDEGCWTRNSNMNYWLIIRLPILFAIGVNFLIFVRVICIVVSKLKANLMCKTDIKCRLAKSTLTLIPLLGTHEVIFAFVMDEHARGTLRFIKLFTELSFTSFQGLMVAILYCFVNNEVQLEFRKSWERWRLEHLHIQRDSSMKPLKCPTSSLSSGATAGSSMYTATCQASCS

| Structure (SMILES) | EC50 [1] [nM] | EC50 [2] [nM] |
| --- | --- | --- |
| CC[C@H](C)[C@H](NC(=O)[C@H](CC(C)C)NC(=O)[C@H](Cc1ccc(O)cc1)NC(=O)[C@H](CCC(=O)O)NC(=O)[C@@H](NC(=O)[C@H](Cc1ccccc1)NC(=O)[C@H](C)NC(=O)C(C)(C)NC(=O)[C@H](CCC(N)=O)NC(=O)[C@H](C)NC(=O)[C@H](CCCCNC(=O)COCCOCCNC(=O)COCCOCCNC(=O)CC[C@H](NC(=O)CCCCCCCCCCCCCCCCCCC(=O)O)C(=O)O)NC(=O)[C@H](CCCCN)NC(=O)[C@H](CC(=O)O)NC(=O)[C@H](CC(C)C)NC(=O)[C@H](CC(C)C)NC(=O)[C@@H](NC(=O)[C@H](CO)NC(=O)[C@H](Cc1cccnc1)NC(=O)[C@H](CC(=O)O)NC(=O)[C@H](CO)NC(=O)[C@@H](NC(=O)[C@](C)(Cc1ccccc1)NC(=O)[C@@H](NC(=O)CNC(=O)[C@H](CCC(=O)O)NC(=O)C(C)(C)NC(=O)[C@@H](N)Cc1ccc(O)cc1)[C@@H](C)O)[C@@H](C)O)[C@@H](C)CC)[C@@H](C)CC)C(=O)N[C@@H](CCC(=O)O)C(=O)NCC(=O)NCC(=O)N1CCC[C@H]1C(=O)N[C@@H](CO)C(=O)N[C@@H](CO)C(=O)NCC(=O)N[C@@H](C)C(=O)N1CCC[C@H]1C(=O)N1CCC[C@H]1C(=O)N1CCC[C@H]1C(=O)N[C@@H](CO)C(N)=O [Example 132] (H-Y[Aib]EGT[αMeF]TSD[3Pal]SILLDKK([AEEA-AEEA-γGlu-C20 diacid])AQ[Aib]AFIEYLIEGGPSSGAPPPS-NH2) | 0.26 | 0.0657 |
| CC[C@H](C)[C@H](NC(=O)[C@H](CCCCN)NC(=O)[C@H](CC(C)C)NC(=O)[C@H](CC(C)C)NC(=O)[C@@H](NC(=O)[C@H](CO)NC(=O)[C@H](Cc1ccc(O)cc1)NC(=O)[C@H](CC(=O)O)NC(=O)[C@H](CO)NC(=O)[C@@H](NC(=O)[C@H](Cc1ccccc1)NC(=O)[C@@H](NC(=O)CNC(=O)[C@H](CCC(=O)O)NC(=O)C(C)(C)NC(=O)[C@@H](N)Cc1ccc(O)cc1)[C@@H](C)O)[C@@H](C)O)[C@@H](C)CC)C(=O)N[C@@H](C)C(=O)N[C@@H](CCC(N)=O)C(=O)NC(C)(C)C(=O)N[C@@H](C)C(=O)N[C@@H](Cc1ccccc1)C(=O)N[C@H](C(=O)N[C@@H](CCC(=O)O)C(=O)N[C@@H](Cc1ccc(O)cc1)C(=O)N[C@@H](CC(C)C)C(=O)N[C@H](C(=O)N[C@@H](CCC(=O)O)C(=O)NCC(=O)NCC(=O)N1CCC[C@H]1C(=O)N[C@@H](CO)C(=O)N[C@@H](CO)C(=O)NCC(=O)N[C@@H](C)C(=O)N1CCC[C@H]1C(=O)N1CCC[C@H]1C(=O)N[C@@H](CCCCNC(=O)COCCOCCNC(=O)COCCOCCNC(=O)CC[C@H](NC(=O)CCCCCCCCCCCCCCCCCCC(=O)O)C(=O)O)C(=O)N[C@@H](CO)C(N)=O)[C@@H](C)CC)[C@@H](C)CC [Example 77] (H-Y[Aib]EGTFTSDYSILLKIAQ[Aib]AFIEYLIEGGPSSGAPPK([AEEA-AEEA-γGlu-C20 diacid])S-NH2) | > 2000 | 135 |
| CC[C@H](C)[C@H](NC(=O)[C@H](CC(C)C)NC(=O)[C@H](Cc1ccc(O)cc1)NC(=O)[C@H](CCC(=O)O)NC(=O)[C@@H](NC(=O)[C@H](Cc1ccccc1)NC(=O)[C@H](CCC(=O)O)NC(=O)C(C)(C)NC(=O)[C@H](CCC(N)=O)NC(=O)[C@H](C)NC(=O)[C@H](CCCCNC(=O)COCCOCCNC(=O)COCCOCCNC(=O)CC[C@H](NC(=O)CCCCCCCCCCCCCCCCCCC(=O)O)C(=O)O)NC(=O)[C@H](CCC(=O)O)NC(=O)[C@H](CC(=O)O)NC(=O)[C@H](CC(C)C)NC(=O)[C@](C)(CC(C)C)NC(=O)[C@@H](NC(=O)[C@H](CO)NC(=O)[C@](C)(Cc1ccccc1)NC(=O)[C@H](CC(=O)O)NC(=O)[C@H](CO)NC(=O)[C@@H](NC(=O)[C@](C)(Cc1ccccc1F)NC(=O)[C@@H](NC(=O)CNC(=O)[C@H](CCC(=O)O)NC(=O)C(C)(C)NC(=O)[C@@H](N)Cc1ccc(O)cc1)[C@@H](C)O)[C@@H](C)O)[C@@H](C)CC)[C@@H](C)CC)C(=O)N[C@@H](CCC(=O)O)C(=O)NCC(=O)NCC(=O)N1CCC[C@H]1C(=O)N[C@@H](CO)C(=O)N[C@@H](CO)C(=O)NCC(=O)N[C@@H](C)C(=O)N1CCC[C@H]1C(=O)N1CCC[C@H]1C(=O)N1CCC[C@H]1C(=O)N[C@@H](CO)C(N)=O [Example 159] (H-Y[Aib]EGT[αMePhe(2-F)]TSD[αMeF]SI[αMeL]LDEK([AEEA-AEEA-γGlu-C20 diacid])AQ[Aib]EFIEYLIEGGPSSGAPPPS-NH2) | 0.33 | 4.6 |
| CC[C@H](C)[C@H](NC(=O)[C@H](CC(C)C)NC(=O)[C@](C)(Cc1ccc(O)cc1)NC(=O)[C@@H](CCC(=O)O)NC(=O)[C@@H](NC(=O)[C@H](Cc1ccccc1)NC(=O)[C@H](CCC(=O)O)NC(=O)C(C)(C)NC(=O)[C@H](CCC(N)=O)NC(=O)[C@H](C)NC(=O)[C@H](CCC(N)=O)NC(=O)[C@H](CCCN)NC(=O)[C@H](CC(=O)O)NC(=O)[C@H](CC(C)C)NC(=O)[C@](C)(CC(C)C)NC(=O)[C@@H](NC(=O)[C@H](CO)NC(=O)[C@H](Cc1ccncc1)NC(=O)[C@H](CC(=O)O)NC(=O)[C@H](CO)NC(=O)[C@@H](NC(=O)[C@](C)(Cc1ccccc1F)NC(=O)[C@@H](NC(=O)CNC(=O)[C@H](CCC(=O)O)NC(=O)C(C)(C)NC(=O)[C@@H](N)Cc1ccc(O)cc1)[C@@H](C)O)[C@@H](C)O)[C@@H](C)CC)[C@@H](C)CC)C(=O)N[C@@H](CCC(=O)O)C(=O)NCC(=O)NCC(=O)N1CCC[C@H]1C(=O)N[C@@H](CO)C(=O)N[C@@H](CO)C(=O)NCC(=O)N[C@@H](C)C(=O)N1CCC[C@H]1C(=O)N1CCC[C@H]1C(=O)N1CCC[C@H]1C(=O)N[C@@H](CO)C(=O)N[C@@H](CS)C(N)=O [Example 287] (H-Y[Aib]EGT[αMePhe(2-F)]TSD[4Pal]SI[αMeL]LD[Orn]QAQ[Aib]EFI[dE][αMeY]LIEGGPSSGAPPPSC-NH2) | 0.112 | 0.15 |
| CC[C@H](C)[C@H](NC(=O)[C@H](CC(C)C)NC(=O)[C@H](Cc1ccc(O)cc1)NC(=O)[C@@H](CCC(=O)O)NC(=O)[C@@H](NC(=O)[C@H](Cc1ccccc1)NC(=O)[C@H](CCC(=O)O)NC(=O)C(C)(C)NC(=O)[C@H](CCC(N)=O)NC(=O)[C@H](C)NC(=O)[C@H](CCC(N)=O)NC(=O)[C@H](CCC(=O)O)NC(=O)[C@H](CC(=O)O)NC(=O)[C@H](CC(C)C)NC(=O)[C@](C)(CC(C)C)NC(=O)[C@@H](NC(=O)[C@H](CO)NC(=O)[C@H](Cc1ccc(O)cc1)NC(=O)[C@H](CC(=O)O)NC(=O)[C@H](CO)NC(=O)[C@@H](NC(=O)[C@](C)(Cc1ccccc1F)NC(=O)[C@@H](NC(=O)CNC(=O)[C@H](CCC(=O)O)NC(=O)C(C)(C)NC(=O)[C@@H](N)Cc1ccc(O)cc1)[C@@H](C)O)[C@@H](C)O)[C@@H](C)CC)[C@@H](C)CC)C(=O)N[C@@H](CCC(=O)O)C(=O)NCC(=O)NCC(=O)N1CCC[C@H]1C(=O)N[C@@H](CO)C(=O)N[C@@H](CO)C(=O)NCC(=O)N[C@@H](C)C(=O)N1CCC[C@H]1C(=O)N1CCC[C@H]1C(=O)N1CCC[C@H]1C(=O)N[C@@H](CO)C(N)=O [Example 277] (H-Y[Aib]EGT[αMePhe(2-F)]TSDYSI[αMeL]LDEQAQ[Aib]EFI[dE]YLIEGGPSSGAPPPS-NH2; N-terminus assumed) | 0.133 | 0.0554 |
